Laboratory results reported in patent US11566007B2, “Ras inhibitors” (Revolution Medicines, Inc., priority 2019, dated 2023).
Where two headings read alike, the source gives them in different places.

What was measured:
[1] = ester bond, 18-membered ring, DCM
SW1573 = conditions: Canon et al. 2019; cited from earlier work
[2] = system: NCI-H358 KRASG12C xenograft; assay: In vivo NSCLC K-Ras G12C xenograft model; parameters: species or system BALB/c nude mice
Method: Cobimetinib was administered by daily oral gavage at 2.5 mg/kg. The combination of Compound B and cobimetinib at their respective single-agent dose and regimen was also tested.

NCI-H358 cells [3] = assay: Long-term cell proliferation assay (Incucyte confluence); type: cell-based, human; conditions: trametinib 10 nM
Method: The plate was placed in the Incucyte S3 live cell analysis system (37° C., 5% CO2) and confluence was measured by recording images at 6-hour intervals for a maximum of 40 days, or until wells reached maximal confluence. Media and drug were replaced at 3-4 day intervals. Data are plotted as % confluence over the time course of the experiment for each single agent and respective combination (FIG. 5).

NCI-H358 cells [4] = assay: 72-hour proliferation assay using CellTiter-Glo reagent; type: cell-based, human; conditions: read-out: EC50 from a 72-hour proliferation assay
[5] = single agent: Compound B 50 mg/kg twice weekly intravenous, cobimetinib […] daily oral

`CC1(C)COC(=O)[C@@H]2CCCN(N2)C(=O)[C@@H](NC(=O)OC(C)(C)C)Cc2cccc(c2)-c2ccc3[nH]c(I)c(c3c2)C1` gave a ring closure, isolated yield ([1]; from CC(C)(CO)Cc1c(I)[nH]c2ccc(-c3cccc(C[C@H](NC(=O)OC(C)(C)C)C(=O)N4CCC[C@@H](C(=O)O)N4)c3)cc12, EDCI/HOBt/DIPEA, 12.8 mM, 0.0 °C) of 79.8% and a ring closure, yield of all isomers (from CC(C)(CO)Cc1c(I)[nH]c2ccc(-c3cccc(C[C@H](NC(=O)OC(C)(C)C)C(=O)N4CCC[C@@H](C(=O)O)N4)c3)cc12, ester bond, EDCI/HOBt/DIPEA, DCM, 12.77 mM, 0.0 °C, 16.0 h) of 79.8%.
`CCn1c(-c2cccnc2[C@H](C)OC)c2c3cc(ccc31)-c1nc(co1)C[C@H](NC(=O)OC(C)(C)C)C(=O)N1CCC[C@H](N1)C(=O)OCC(C)(C)C2` gave a ring closure, yield of all isomers (from CCn1c(-c2cccnc2[C@H](C)OC)c(CC(C)(C)COC(=O)[C@@H]2CCCN(C(=O)[C@H](Cc3coc(Br)n3)NC(=O)OC(C)(C)C)N2)c2cc(B3OC(C)(C)C(C)(C)O3)ccc21, cc_pd bond, XPhos Pd G3/XPhos/K3PO4, dioxane, […], 70.0 °C, 4.0 h) of 56%.
`CCn1c(-c2cccnc2[C@H](C)OC)c2c3cc(ccc31)-c1nc(nn1C)C[C@H](NC(=O)OC(C)(C)C)C(=O)N1CCC[C@H](N1)C(=O)OCC(C)(C)C2` showed a ring closure, yield of all isomers (from CCn1c(-c2cccnc2[C@H](C)OC)c(CC(C)(C)COC(=O)[C@@H]2CCCN(C(=O)[C@H](Cc3nc(Br)n(C)n3)NC(=O)OC(C)(C)C)N2)c2cc(B3OC(C)(C)C(C)(C)O3)ccc21, cc_pd bond, XPhos Pd G3/XPhos/K3PO4, 1,4-dioxane, 71.7 mM, 75.0 °C, 3.0 h) of 56.8%.
`CCn1c(-c2cccnc2[C@H](C)OC)c2c3nc(ccc31)-c1csc(n1)C[C@H](NC(=O)OC(C)(C)C)C(=O)N1CCC[C@H](N1)C(=O)OCC(C)(C)C2` gave a ring closure, isolated yield ([1]; from CCn1c(-c2cccnc2[C@H](C)OC)c(CC(C)(C)CO)c2nc(-c3csc(C[C@H](NC(=O)OC(C)(C)C)C(=O)N4CCC[C@@H](C(=O)O)N4)n3)ccc21, EDCI.HCl/HOBt/DIPEA, 6.4 mM) of 43% and a ring closure, yield of all isomers (from CCn1c(-c2cccnc2[C@H](C)OC)c(CC(C)(C)CO)c2nc(-c3csc(C[C@H](NC(=O)OC(C)(C)C)C(=O)N4CCC[C@@H](C(=O)O)N4)n3)ccc21, ester bond, EDCI/HOBt/DIPEA, DCM, 6.4 mM, 25.0 °C, 16.0 h) of 43%.
`CO[C@@H](C)c1ncccc1-c1c2c3cc(ccc3n1CC(F)(F)F)-c1cccc(n1)C[C@H](NC(=O)OC(C)(C)C)C(=O)N1CCCC(N1)C(=O)OCC(C)(C)C2` (some centres unmarked) gave a ring closure, isolated yield ([1]; from CO[C@@H](C)c1ncccc1-c1c(CC(C)(C)CO)c2cc(-c3cccc(C[C@H](NC(=O)OC(C)(C)C)C(=O)N4CCCC(C(=O)O)N4)n3)ccc2n1CC(F)(F)F, EDCI/HOBt/DIPEA, 6.27 mM) of 89% and a ring closure, yield of all isomers (from CO[C@@H](C)c1ncccc1-c1c(CC(C)(C)CO)c2cc(-c3cccc(C[C@H](NC(=O)OC(C)(C)C)C(=O)N4CCCC(C(=O)O)N4)n3)ccc2n1CC(F)(F)F, ester bond, EDCI/HOBt/DIPEA, DCM, 6.27 mM, 25.0 °C, 3.0 h) of 89%.
`CO[C@@H](C)c1ncccc1-c1c2c3cc(ccc3n1CC(F)(F)F)-c1nc(ns1)C[C@H](NC(=O)OC(C)(C)C)C(=O)N1CCC[C@H](N1)C(=O)OCC(C)(C)C2` gave a ring closure, isolated yield ([1]; from CO[C@@H](C)c1ncccc1-c1c(CC(C)(C)CO)c2cc(-c3nc(C[C@H](NC(=O)OC(C)(C)C)C(=O)N4CCC[C@@H](C(=O)O)N4)ns3)ccc2n1CC(F)(F)F, EDCI/HOBt/DIPEA, 11.1 mM) of 43.5% and a ring closure, yield of all isomers (from CO[C@@H](C)c1ncccc1-c1c(CC(C)(C)CO)c2cc(-c3nc(C[C@H](NC(=O)OC(C)(C)C)C(=O)N4CCC[C@@H](C(=O)O)N4)ns3)ccc2n1CC(F)(F)F, ester bond, EDCI/HOBt/DIPEA, DCM, 11.1 mM, 25.0 °C, 16.0 h) of 43.5%.
For `C=CC(=O)N1CCN(c2nc(=O)n(-c3c(C)ccnc3C(C)C)c3nc(-c4c(O)cccc4F)c(F)cc23)[C@@H](C)C1` [AMG510], the “sensitivity of cell line” value (SW1573) is listed as “insensitive”.
With `Cc1nc(N2CCC3(CC2)CO[C@@H](C)[C@H]3N)c(CO)nc1-c1cccc(Cl)c1Cl` [RMC-4550] the “mice with tumor regression at end of study (out of 10), single agent” value ([2]; single agent: Compound C 60 mg/kg once weekly intravenous, SHP2 inhibitor (RMC-4550) 30 mg/kg daily oral) was 5.
For `O=C(c1ccc(F)c(F)c1Nc1ccc(I)cc1F)N1CC(O)([C@@H]2CCCCN2)C1` [cobimetinib], the “effect on tumor growth, single agent” value [2, 5] was “tumor growth inhibition” and the “tumor regressions recorded, single agent group” value [2, 5] was “no tumor regressions”.
In the case of `CC(=O)Nc1cccc(-n2c(=O)n(C3CC3)c(=O)c3c(Nc4ccc(I)cc4F)n(C)c(=O)c(C)c32)c1` [trametinib], the “time to maximal confluence after the addition of drug” value (NCI-H358 cells [3]; single agent at EC50 concentration: Compound D 17 nM) is reported as about 10 days, the “cell growth (% confluence) over time, single agent” value (NCI-H358 cells [3]; submaximal (EC50) concentration: Compound D 17 nM) is reported as “a short period of growth inhibition, followed by proliferation” and the EC50 (NCI-H358 cells [4]) is reported as 0.01 µM.
